How the values were obtained:
HCT-116 [1] = test: Inhibition of colony formation in human HCT-116 cells at 0.01 uM preincubated for 1 hr followed by exposure to 2 Gy gamma irradiation and measured after 1 week by crystal violet staining based […] assay relative to control; type: functional; details: HCT-116, light or radiation study, time 169 hrs
[2] = Metabolic stability in human liver microsomes assessed as half life at 1 uM in presence of NADPH-regenerating system by LC-MS/MS analysis; type: ADME, Microsome
[3] = Metabolic stability in human liver microsomes assessed as clearance at 1 uM in presence of NADPH-regenerating system by LC-MS/MS analysis; type: ADME, Microsome
MCF7 [4] = test: Antiproliferative activity against human MCF7 cells assessed as reduction in cell viability incubated for 6 days by MTT assay; type: functional, cell-based; details: MCF7, 144 h
MCF7 [5] = test: Synergistic antiproliferative activity against human MCF7 cells assessed as fold increase in etoposide IC50 at 200 nM measured after 6 days by MTT assay; type: functional; details: time 6 day
MCF7 [6] = test: Synergistic antiproliferative activity against human MCF7 cells assessed as fold increase in irinotecan IC50 at 200 nM measured after 6 days by MTT assay; type: functional; details: time 6 day
HCT-116 [7] = test: Inhibition of colony formation in human HCT-116 cells preincubated for 1 hr followed by exposure to 2 Gy gamma irradiation and measured after 1 week by crystal violet staining based […] assay; type: functional, cell-based; details: HCT-116, light or radiation study
MCF7 [8] = test: Synergistic antiproliferative activity against human MCF7 cells assessed as combination index at […] measured after 6 days in presence irinotecan by MTT assay; type: functional; details: dose lower 100 µM; time 6 day
SW-620 = test: Antiproliferative activity against human SW620 cells assessed as reduction in cell viability incubated for 6 days by MTT assay; type: functional, cell-based; details: SW-620, 144 h
HCT-116 [9] = test: Inhibition of colony formation in human HCT-116 cells assessed as assessed as fold change in IC50 in presence of ionizing radiation; type: functional
[10] = biological target: T1, Serine-protein kinase ATM (Homo sapiens, UniProt Q13315); test: Inhibition of ATM (unknown origin) preincubated with compound for 30 mins followed by substrate addition and measured after 2 hrs by HTRF method
MCF7 [11] = test: Synergistic antiproliferative activity against human MCF7 cells assessed as combination index at […] measured after 6 days in presence etoposide by MTT assay; type: functional; details: dose lower 100 µM; time 6 day
HCT-116 [12] = test: Antiproliferative activity against human HCT-116 cells assessed as cell survival at 1 uM incubated for 6 days by MTT assay relative to control; type: functional; details: HCT-116, 144 h, time 6 day, read-out: Survival
[13] = Inhibition of PIK3 (unknown origin); parameters: species or system Homo sapiens
[14] = biological target: T2, Serine/threonine-protein kinase ATR (Homo sapiens, UniProt Q13535); test: Inhibition of flag tagged- ATR (unknown origin) expressed in Escherichia coli BL21 incubated for 20 mins in presence of ATP
Target sequence in this assay (Q13535 whole entry): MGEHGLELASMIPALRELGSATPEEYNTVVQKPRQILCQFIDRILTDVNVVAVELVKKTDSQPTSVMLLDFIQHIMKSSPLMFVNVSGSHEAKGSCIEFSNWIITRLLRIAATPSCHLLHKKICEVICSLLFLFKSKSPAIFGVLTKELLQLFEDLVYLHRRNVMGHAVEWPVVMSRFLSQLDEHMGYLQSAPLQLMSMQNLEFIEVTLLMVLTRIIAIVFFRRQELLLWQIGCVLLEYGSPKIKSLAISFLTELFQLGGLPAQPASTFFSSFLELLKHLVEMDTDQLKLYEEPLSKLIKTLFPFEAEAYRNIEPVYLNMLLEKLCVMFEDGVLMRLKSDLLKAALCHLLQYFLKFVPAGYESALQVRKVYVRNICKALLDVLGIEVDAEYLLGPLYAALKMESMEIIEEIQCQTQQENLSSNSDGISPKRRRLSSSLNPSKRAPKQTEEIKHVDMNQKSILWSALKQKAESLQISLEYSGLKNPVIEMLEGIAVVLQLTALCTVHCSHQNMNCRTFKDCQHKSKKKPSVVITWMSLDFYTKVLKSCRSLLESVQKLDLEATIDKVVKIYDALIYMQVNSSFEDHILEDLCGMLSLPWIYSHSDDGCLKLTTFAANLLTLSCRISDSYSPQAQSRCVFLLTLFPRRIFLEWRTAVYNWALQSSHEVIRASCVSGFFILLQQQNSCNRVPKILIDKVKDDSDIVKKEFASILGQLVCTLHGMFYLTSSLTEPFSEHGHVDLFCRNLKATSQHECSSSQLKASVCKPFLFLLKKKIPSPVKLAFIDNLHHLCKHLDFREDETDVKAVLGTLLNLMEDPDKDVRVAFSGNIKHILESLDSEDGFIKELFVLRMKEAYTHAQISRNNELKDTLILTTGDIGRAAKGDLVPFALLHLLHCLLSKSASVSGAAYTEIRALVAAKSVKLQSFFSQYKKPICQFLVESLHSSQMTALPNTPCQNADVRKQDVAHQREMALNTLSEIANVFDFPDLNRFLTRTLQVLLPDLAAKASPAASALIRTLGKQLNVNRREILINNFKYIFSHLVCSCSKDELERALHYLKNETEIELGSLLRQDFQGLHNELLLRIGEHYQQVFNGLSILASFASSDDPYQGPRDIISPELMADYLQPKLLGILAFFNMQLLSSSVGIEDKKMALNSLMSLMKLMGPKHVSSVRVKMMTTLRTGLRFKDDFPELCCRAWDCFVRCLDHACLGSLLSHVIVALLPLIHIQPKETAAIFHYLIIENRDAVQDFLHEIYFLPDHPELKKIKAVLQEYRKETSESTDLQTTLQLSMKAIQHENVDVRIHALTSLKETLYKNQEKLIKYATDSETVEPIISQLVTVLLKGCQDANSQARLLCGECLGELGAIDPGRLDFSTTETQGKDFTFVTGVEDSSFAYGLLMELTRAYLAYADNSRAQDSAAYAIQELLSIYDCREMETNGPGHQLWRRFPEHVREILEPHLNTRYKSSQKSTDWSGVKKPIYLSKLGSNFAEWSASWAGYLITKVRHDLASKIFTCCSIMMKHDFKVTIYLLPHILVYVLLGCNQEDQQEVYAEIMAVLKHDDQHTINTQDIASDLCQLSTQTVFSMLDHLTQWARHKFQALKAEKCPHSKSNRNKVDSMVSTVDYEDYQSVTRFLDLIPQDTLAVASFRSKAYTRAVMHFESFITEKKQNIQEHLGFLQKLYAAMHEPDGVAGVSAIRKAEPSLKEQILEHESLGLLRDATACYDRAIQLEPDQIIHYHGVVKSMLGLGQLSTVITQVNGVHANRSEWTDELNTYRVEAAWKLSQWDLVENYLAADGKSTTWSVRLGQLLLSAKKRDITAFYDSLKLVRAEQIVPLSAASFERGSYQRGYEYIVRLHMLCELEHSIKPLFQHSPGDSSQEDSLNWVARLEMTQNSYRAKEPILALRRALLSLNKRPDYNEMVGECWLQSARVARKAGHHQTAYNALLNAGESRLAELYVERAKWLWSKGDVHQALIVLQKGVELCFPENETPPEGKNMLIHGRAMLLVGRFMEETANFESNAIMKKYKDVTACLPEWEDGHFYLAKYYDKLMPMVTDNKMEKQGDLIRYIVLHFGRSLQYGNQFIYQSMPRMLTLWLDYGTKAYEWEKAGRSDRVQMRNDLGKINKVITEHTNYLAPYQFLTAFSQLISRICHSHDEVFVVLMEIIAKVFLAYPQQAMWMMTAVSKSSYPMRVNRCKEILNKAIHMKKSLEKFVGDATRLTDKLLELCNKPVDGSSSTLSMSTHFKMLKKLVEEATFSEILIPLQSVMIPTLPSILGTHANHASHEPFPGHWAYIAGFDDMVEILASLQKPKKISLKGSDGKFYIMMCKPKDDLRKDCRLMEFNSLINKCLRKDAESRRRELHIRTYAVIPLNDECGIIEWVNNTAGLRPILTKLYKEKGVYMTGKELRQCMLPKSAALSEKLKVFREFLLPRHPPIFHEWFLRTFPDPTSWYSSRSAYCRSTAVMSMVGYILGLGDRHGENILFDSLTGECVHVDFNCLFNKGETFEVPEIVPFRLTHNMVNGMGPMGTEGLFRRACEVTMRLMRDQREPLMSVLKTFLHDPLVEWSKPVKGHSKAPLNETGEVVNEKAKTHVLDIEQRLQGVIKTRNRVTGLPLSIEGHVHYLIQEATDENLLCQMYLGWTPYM

[15] = biological target: T1, Serine-protein kinase ATM; test: Inhibition of ATM (unknown origin) assessed as remaining activity at 1 uM preincubated with compound for 30 mins followed by substrate addition and measured after 2 hrs by HTRF method relative to control; details: time 2.5 hrs
[16] = biological target: T2, Serine/threonine-protein kinase ATR; test: Inhibition of ATR (unknown origin) assessed as remaining activity at 1 uM in presence of [gamma33P-ATP] by radiometric assay
Target sequence in this assay (Q13535 whole entry, looked up): as the sequence (Q13535 whole entry) above

[17] = Metabolic stability in human liver microsomes assessed as M1 metabolite formation at 1 uM in presence of NADPH-regenerating system by LC-MS/MS analysis; type: ADME, Microsome
[18] = biological target: T1, Serine-protein kinase ATM; test: Inhibition of ATM (unknown origin) assessed as remaining activity at 0.01 uM preincubated with compound for 30 mins followed by substrate addition and measured after 2 hrs by HTRF method relative to control; details: time 2.5 hrs

SMILES: CC(C)NC(=O)N(C)c1cnc2ccc(-c3ccc(OCCCN4CCCC4)nc3)cc2n1
- inhibition at 0.01 µM (HCT-116 [1]): 83.8%
- half-life at 1 µM [2]: 267 min
- CLH [3]: 5.2 mL/min/g
- IC50 (MCF7 [4]): > 9 µM
- fold change (FC) (MCF7 [5]): 3
- fold change (FC) (MCF7 [6]): 13
- IC50 (HCT-116 [7]): 1.76 nM
- CI (MCF7 [8]): <1
- IC50 (SW-620): > 9 µM
- fold change (FC) (HCT-116 [9]): 8284
- IC50 [10]: 1.75 nM
- CI (MCF7 [11]): <1
- viability at 1 µM (HCT-116 [12]): > 83%

SMILES: Cn1c(=O)n(-c2ccc(C(C)(C)C#N)cc2)c2c3cc(-c4cnc5ccccc5c4)ccc3ncc21 [DACTOLISIB]
- IC50 [13]: 4 nM
- IC50 [14]: 21 nM

SMILES: CN(C)CCCOc1ccc(-c2ccc3ncc(NC(=O)NC4CCCCC4)nc3c2)cn1
- half-life at 1 µM [2]: 5 min
- CLH [3]: 293 mL/min/g
- Activity [15]: -5%
- Activity [16]: 102%
- Drug metabolism [17]: Metabolite_Detected

SMILES: CN(C)CCCOc1ccc(-c2ccc3ncc(N(C)C(=O)NC4CCCC4)nc3c2)cn1
- inhibition at 0.01 µM (HCT-116 [1]): 91.9%
- half-life at 1 µM [2]: 22 min
- CLH [3]: 64 mL/min/g
- Activity [18]: 2%
- Activity [16]: 100%
- IC50 (HCT-116 [7]): 1.56 nM
- IC50 [10]: 1 nM
- viability at 1 µM (HCT-116 [12]): > 83%

SMILES: CN(C)CCCOc1ccc(-c2ccc3ncc(N(C)C(=O)NC4CC4)nc3c2)cn1
- inhibition at 0.01 µM (HCT-116 [1]): 43.9%
- half-life at 1 µM [2]: 41 min
- CLH [3]: 39 mL/min/g
- Activity [18]: 17%
- Activity [16]: 114%
- IC50 (HCT-116 [7]): 15.3 nM
- IC50 [10]: 8 nM
- viability at 1 µM (HCT-116 [12]): > 83%

SMILES: CCN(CC)CCCOc1ccc(-c2ccc3ncc(N(C)C(=O)NC(C)C)nc3c2)cn1
- inhibition at 0.01 µM (HCT-116 [1]): 72.8%
- half-life at 1 µM [2]: 99 min
- CLH [3]: 14 mL/min/g
- Activity [18]: 19%
- Activity [15]: -3%
- IC50 (HCT-116 [7]): 6.97 nM
- IC50 [10]: 1 nM
- viability at 1 µM (HCT-116 [12]): > 83%

SMILES: CN(C)CCCOc1ccc(-c2ccc3ncc(N(C)C(=O)NC4CCCCC4)nc3c2)cn1
- inhibition at 0.01 µM (HCT-116 [1]): 99.6%
- half-life at 1 µM [2]: 15 min
- CLH [3]: 94 mL/min/g
- Activity [18]: -1%
- Activity [16]: 94%
- IC50 (HCT-116 [7]): 0.54 nM
- IC50 [10]: 0.9 nM
- viability at 1 µM (HCT-116 [12]): > 83%
